Laboratory results taken from patent publication US11713338B2, “Cyclic peptides multimers targeting α-4-β-7 integrin” (priority 2016, dated 2023).
pIC50: −log10 of the molar value. Where two headings read alike, the source gives them in different places.

Target: T1, integrin α4β7 on α4β7+ memory T helper cells (Homo sapiens, UniProt P13612+P26010)
T1 construct: endogenous in cells
T1 sequence (P13612 34-1032): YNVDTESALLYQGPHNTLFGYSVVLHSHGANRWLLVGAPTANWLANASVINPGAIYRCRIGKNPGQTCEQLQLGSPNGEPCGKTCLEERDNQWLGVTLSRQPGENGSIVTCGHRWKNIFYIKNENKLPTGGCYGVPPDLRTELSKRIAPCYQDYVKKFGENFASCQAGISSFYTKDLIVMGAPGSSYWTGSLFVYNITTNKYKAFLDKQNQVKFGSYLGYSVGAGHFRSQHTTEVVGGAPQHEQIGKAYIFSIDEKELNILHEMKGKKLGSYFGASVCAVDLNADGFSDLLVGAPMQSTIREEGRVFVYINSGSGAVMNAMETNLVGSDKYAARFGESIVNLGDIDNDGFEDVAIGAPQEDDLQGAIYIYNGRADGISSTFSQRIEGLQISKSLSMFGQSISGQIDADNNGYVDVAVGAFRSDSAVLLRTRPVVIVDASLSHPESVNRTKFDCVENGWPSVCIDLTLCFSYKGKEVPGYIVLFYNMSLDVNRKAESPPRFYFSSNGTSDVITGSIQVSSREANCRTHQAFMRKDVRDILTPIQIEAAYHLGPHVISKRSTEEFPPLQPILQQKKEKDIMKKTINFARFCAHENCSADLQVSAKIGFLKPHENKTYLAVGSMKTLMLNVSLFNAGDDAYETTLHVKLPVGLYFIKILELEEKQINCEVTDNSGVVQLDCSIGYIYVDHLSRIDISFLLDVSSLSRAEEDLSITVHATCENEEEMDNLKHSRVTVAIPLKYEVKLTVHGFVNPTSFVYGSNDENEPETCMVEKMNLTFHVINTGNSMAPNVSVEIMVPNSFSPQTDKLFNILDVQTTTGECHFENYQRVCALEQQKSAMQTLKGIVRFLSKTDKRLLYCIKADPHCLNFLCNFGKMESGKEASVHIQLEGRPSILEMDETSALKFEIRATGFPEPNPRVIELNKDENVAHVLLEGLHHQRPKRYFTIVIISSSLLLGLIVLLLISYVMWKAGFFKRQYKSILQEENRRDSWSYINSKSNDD
T1 sequence (P26010 20-798): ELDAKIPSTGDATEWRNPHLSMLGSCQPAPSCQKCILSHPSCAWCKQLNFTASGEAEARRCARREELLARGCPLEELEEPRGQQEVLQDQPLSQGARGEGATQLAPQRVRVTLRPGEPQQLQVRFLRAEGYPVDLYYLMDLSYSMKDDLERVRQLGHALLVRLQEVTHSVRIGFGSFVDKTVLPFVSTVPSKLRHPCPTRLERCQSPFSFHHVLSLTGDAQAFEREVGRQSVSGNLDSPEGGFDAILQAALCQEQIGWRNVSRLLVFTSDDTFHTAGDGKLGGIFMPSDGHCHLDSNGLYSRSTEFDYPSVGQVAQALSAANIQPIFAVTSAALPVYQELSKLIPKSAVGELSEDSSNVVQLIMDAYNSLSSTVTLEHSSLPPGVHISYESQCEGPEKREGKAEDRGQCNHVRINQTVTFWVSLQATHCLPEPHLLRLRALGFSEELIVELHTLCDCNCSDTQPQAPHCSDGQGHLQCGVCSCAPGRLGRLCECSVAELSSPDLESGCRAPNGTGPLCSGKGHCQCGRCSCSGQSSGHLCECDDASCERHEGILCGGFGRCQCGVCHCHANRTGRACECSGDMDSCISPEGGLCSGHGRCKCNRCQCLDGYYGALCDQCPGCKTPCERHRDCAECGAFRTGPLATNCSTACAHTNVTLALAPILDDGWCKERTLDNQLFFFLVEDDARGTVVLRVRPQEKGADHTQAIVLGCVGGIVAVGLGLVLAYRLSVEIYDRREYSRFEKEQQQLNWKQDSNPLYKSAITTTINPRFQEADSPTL
Experiment: MAdCAM-1 competition / receptor occupancy assay in human whole blood, α4β7-positive Th memory cells
Format: cell-based
Conditions: human whole blood
Outline: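 Human heparinised whole blood; saturating biotinylated rhMAdCAM-1-Fc or rhVCAM-1-Fc bound 1 h at RT, stained in buffer with 4 mM MnCl2, detected by streptavidin-APC flow cytometry on gated CD45+CD3+CD4+CD45RO+CD49d+ β7+ or β7-lo cells. Occupancy = 100−((% ligand-positive cells with compound/% ligand-positive cells DMSO)*100).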

[1] = inhibition of MAdCAM-1 binding to α4β7-positive Th memory cells, FACS, read-out: MADCAM FACS α4β7 Th mem

**Q.** With CC(C)C[C@@H]1NC(=O)C[C@H](CCCCN)N(C)C(=O)[C@H](CCCCNC(=O)c2ccccc2-c2ccccc2C(=O)NCCCC[C@@H]2NC(=O)[C@@H]3CCCN3[C@H](C(=O)NC(C)(C)C)[C@H](C)NC(=O)[C@H]([C@@H](C)O)NC(=O)[C@H](CC(=O)O)NC(=O)[C@H](CC(C)C)NC(=O)C[C@H](CCCCN)N(C)C2=O)NC(=O)[C@@H]2CCCN2[C@H](C(=O)NC(C)(C)C)[C@H](C)NC(=O)[C@H]([C@@H](C)O)NC(=O)[C@H](CC(=O)O)NC1=O [Compound 535] as the compound, how does the pIC50 (FIG. 7, read-out: IC50, MAdCAM-1 competition on α4β7-positive primary cells) read?
**A.** Its pIC50 is 7.12.

**Q.** What about the pIC50 [1] of the same compound?
**A.** Its pIC50 is 7.11.

**Q.** CC(C)C[C@@H]1NC(=O)C[C@H](CCCCN)N(C)C(=O)[C@H](CCCCNC(=O)CCOCCOCCOCCOCCOCCOCCOCCC(=O)NCCCC[C@@H]2NC(=O)[C@@H]3CCCN3[C@H](C(=O)NC(C)(C)C)[C@H](C)NC(=O)[C@H]([C@@H](C)O)NC(=O)[C@H](CC(=O)O)NC(=O)[C@H](CC(C)C)NC(=O)C[C@H](CCCCN)N(C)C2=O)NC(=O)[C@@H]2CCCN2[C@H](C(=O)NC(C)(C)C)[C@H](C)NC(=O)[C@H]([C@@H](C)O)NC(=O)[C@H](CC(=O)O)NC1=O [Compound 536] was tested. Which pIC50 [1] did it give?
**A.** Its pIC50 is 7.12.
